The values that follow come from US10920265B2, “Compounds and methods for detection of enzymes that remove methyl succinyl groups from epsilon-amino lysine moieties” (Enzo Life Sciences, Inc., priority 2011, dated 2021).

SMILES strings stand for the structures.

The target in one assay is T1, HDAC2 (Homo sapiens, UniProt Q92769).
T1 construct: purchased ENZO Life Sciences BML-SE500
Briefly: HDAC activity with fluorogenic lysyl substrates. The class given is biochemical. Particulars: 50 μM substrate. An outline of the steps: (§1)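 Deacylase activity was measured at 37 °C by the SIRT1 fluorometric kit method. SIRT1 and its Ac-Arg-His-Lys-Lys(Ac)-AMC substrate were swapped for other human recombinant enzymes and other acylated lysyl-AMC substrates such as Ac-Lys(Succ.)-AMC.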

The target in another assay is T2, HDAC5 (Homo sapiens, UniProt Q9UQL6).
T2 construct: made in house; host or cells: E. coli
T2 sequence (Q9UQL6 656-1122): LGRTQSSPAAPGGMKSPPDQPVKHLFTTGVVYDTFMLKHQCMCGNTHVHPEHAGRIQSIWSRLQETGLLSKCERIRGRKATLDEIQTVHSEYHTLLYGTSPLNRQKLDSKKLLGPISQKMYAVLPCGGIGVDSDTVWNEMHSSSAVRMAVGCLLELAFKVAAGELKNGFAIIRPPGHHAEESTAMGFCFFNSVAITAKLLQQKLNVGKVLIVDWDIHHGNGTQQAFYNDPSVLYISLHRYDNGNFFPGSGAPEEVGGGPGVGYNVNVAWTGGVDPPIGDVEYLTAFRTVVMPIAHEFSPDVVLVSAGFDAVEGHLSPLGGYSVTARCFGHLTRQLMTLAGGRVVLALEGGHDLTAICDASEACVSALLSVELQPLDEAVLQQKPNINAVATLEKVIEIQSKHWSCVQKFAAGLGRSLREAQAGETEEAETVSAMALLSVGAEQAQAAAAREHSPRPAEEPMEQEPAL
The assay is described as follows: HDAC activity with fluorogenic lysyl substrates. The format is biochemical. Particulars: 50 μM substrate. The procedure, abridged:
as §1

The next assay deals with T3, HDAC7 (Homo sapiens, UniProt Q8WUI4).
T3 construct: made in house; host or cells: E. coli
T3 sequence (Q8WUI4 483-903): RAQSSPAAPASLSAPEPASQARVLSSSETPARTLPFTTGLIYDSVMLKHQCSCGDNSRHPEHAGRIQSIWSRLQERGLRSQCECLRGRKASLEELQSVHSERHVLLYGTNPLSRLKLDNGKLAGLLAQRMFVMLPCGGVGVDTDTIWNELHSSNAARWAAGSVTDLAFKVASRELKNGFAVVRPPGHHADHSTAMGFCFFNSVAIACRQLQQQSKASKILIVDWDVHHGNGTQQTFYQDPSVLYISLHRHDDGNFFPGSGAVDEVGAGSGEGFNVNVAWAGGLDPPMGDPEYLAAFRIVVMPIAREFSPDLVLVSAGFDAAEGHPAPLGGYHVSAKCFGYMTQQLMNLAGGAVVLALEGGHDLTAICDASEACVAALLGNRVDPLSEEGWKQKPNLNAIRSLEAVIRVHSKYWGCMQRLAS
Briefly: HDAC activity with fluorogenic lysyl substrates. As to conditions: 50 μM substrate. The class given is biochemical. The procedure, abridged:
as §1

The next assay concerns the target T4, HDAC8 (Homo sapiens, UniProt Q9BY41).
T4 construct: purchased ENZO Life Sciences BML-SE145
T4 sequence (Q9BY41 1-377): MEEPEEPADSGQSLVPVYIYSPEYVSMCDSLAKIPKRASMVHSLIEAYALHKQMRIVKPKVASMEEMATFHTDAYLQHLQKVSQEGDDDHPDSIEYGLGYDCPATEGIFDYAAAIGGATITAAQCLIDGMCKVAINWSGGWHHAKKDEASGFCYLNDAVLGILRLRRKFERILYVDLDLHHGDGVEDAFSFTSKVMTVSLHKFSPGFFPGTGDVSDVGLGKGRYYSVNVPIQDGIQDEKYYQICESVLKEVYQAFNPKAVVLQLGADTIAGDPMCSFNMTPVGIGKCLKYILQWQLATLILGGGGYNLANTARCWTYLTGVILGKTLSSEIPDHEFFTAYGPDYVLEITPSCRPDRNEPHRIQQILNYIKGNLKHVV
The assay is described as follows: HDAC activity with fluorogenic lysyl substrates. As to conditions: 50 μM substrate. The class given is biochemical. The procedure, abridged:
as §1

The target in the next assay is T5, HDAC9 (Homo sapiens, UniProt Q9UKV0).
T5 construct: made in house; host or cells: E. coli
T5 sequence (Q9UKV0 644-1066 isoform Q9UKV0-5): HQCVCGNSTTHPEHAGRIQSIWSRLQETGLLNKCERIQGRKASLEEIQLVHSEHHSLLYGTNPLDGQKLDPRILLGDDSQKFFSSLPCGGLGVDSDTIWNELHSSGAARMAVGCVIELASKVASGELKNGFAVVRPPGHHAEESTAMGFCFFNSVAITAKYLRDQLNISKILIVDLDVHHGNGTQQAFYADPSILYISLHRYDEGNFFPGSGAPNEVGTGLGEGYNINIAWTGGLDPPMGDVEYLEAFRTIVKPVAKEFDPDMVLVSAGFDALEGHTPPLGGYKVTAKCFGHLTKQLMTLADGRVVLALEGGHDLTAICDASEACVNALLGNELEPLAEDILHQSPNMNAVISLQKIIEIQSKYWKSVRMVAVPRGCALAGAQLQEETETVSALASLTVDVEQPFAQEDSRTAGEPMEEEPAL
Briefly: HDAC activity with fluorogenic lysyl substrates. The class given is biochemical. Particulars: 50 μM substrate. The procedure, abridged: as §1

The target in the next assay is T6, SIRT2 (Homo sapiens, UniProt Q8IXJ6).
T6 sequence (Q8IXJ6 1-389): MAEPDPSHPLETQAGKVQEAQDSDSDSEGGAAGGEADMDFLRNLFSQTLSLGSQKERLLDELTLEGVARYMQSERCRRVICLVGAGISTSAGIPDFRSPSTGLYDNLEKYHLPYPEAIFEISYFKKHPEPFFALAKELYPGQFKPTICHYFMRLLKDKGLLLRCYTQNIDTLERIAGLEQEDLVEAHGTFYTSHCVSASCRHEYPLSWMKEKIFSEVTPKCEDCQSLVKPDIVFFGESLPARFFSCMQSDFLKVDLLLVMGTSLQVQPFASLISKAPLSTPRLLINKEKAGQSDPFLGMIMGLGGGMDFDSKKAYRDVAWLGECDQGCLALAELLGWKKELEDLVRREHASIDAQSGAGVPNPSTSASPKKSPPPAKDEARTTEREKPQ
The assay is described as follows: Sirtuin activity with fluorogenic lysyl substrates. The format is biochemical. Particulars: 50 μM substrate, 500 μM NAD^+. The procedure, abridged: as §1

For the next assay, the target named is T7, SIRT4 (Homo sapiens, UniProt Q9Y6E7).
T7 construct: purchased BPS Bioscience 50015
T7 sequence (Q9Y6E7 29-314): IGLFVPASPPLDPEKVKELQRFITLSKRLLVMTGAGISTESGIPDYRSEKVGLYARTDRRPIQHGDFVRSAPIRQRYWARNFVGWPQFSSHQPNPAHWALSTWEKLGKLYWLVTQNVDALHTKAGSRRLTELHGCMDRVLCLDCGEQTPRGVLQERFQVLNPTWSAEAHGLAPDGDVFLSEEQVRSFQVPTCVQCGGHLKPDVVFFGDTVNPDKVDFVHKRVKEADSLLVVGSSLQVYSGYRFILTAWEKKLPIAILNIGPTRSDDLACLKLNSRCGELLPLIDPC
Briefly: Sirtuin activity with fluorogenic lysyl substrates. The format is biochemical. As to conditions: 50 μM substrate, 500 μM NAD^+. An outline of the steps: as §1

A further assay deals with HeLa Nuclear Extract. Briefly: Activity of HeLa nuclear extract with fluorogenic lysyl substrates. The class given is biochemical, human. As to conditions: 50 μM substrate. As for the experimental part: The Ac-Lys(Succ.)-AMC substrate was tested for activity with recombinant preparations of human HDACs 1-11, SIRTs 1-4, 6 and 7, a complex of HDAC3 with a fragment of the activating protein NCOR1 and with HeLa nuclear extract, a rich source of active HDACs in their native multiprotein complexes.
Enzyme and extract catalog products obtained from ENZO Life Sciences included: HDAC1 (Cat. # BML-SE456), HDAC2 (Cat. # BML-SE500), HDAC3 (Cat. # BML-SE507), HDAC3/NCOR1 Complex (Cat. # BML-SE515), HDAC6 (Cat. # BML-SE508), HDAC8 (Cat. # BML-SE145), HDAC10 (Cat. # BML-SE559), HDAC11 (Cat. # BML-SE560), SIRT1 (Cat. # BML-SE239), SIRT2 (Cat. # BML-SE251), SIRT3 (Cat. # BML-SE270), SIRT5 (Cat. # BML-SE555), HeLa Nuclear Extract (Cat. # BML-KI140), Trypsin (“Fluor de Lys Developer”, 80 mg/ml bovine trypsin in 1 mM HCl, Cat. # BML-KI105 or “Fluor de Lys Developer II”, 80 mg/ml bovine trypsin in 1 mM HCl, Cat. # BML-KI176). […] Enzymes obtained from BPS Bioscience, San Diego, Calif. included: human recombinants SIRT4 (Cat. #50015), SIRT6 (Cat. #50017), SIRT7 (Cat. #50018). HeLa whole cell extract was obtained from HeLa S3 cells (American Type Culture Collection) grown in a medium of MEM/10% fetal bovine serum (FBS) as follows: 1) 9×10^6 cells were suspended by trypsinization, followed by a phosphate buffered saline (PBS) rinse and addition of MEM/10% FBS (1.5 mL) to eliminate trypsin before transfer to a 15 mL conical tube; 2) cells were sedimented by a low speed centrifugation, gently resuspended in PBS and sedimented again and supernatant removed; 3) lysis was induced by resuspension in 0.8 mL 50 mM Tris/HCl, pH 8.0 with the non-denaturing detergent NP-40 (0.5%), placement on ice and brief vortexing every 5 min. for 30 min.; 4) 100 μl of a concentrated salt solution in the same buffer was added in order to bring the final buffer composition to 50 mM Tris/C1, pH 8.0, 137 mM NaCl, 2.7 mM KCl, 1 mM MgCl2, 0.5% NP-40; 5) particulate matter was cleared by centrifugation and the cleared lysate supernatant transferred to a 1.5 mL Eppendorf tube and stored on ice until use in activity assays.
Assays were performed at 37° C., according to the manufacturer's instructions for the “SIRT1 Fluorometric Drug Discovery Kit” from Enzo Life Sciences (ELS) (Cat. # BML-AK555), with exceptions described as follows. Where indicated in figures and text, SIRT1 enzyme was replaced with another enzyme or extract and the “Fluor de Lys-SIRT1 Substrate” (Ac-Arg-His-Lys-Lys(Ac)-AMC; ELS Cat. # BML-KI-177) was replaced with another acetylated, succinylated or trifluoroacetylated substrate.

T1 sequence (Q92769 whole entry): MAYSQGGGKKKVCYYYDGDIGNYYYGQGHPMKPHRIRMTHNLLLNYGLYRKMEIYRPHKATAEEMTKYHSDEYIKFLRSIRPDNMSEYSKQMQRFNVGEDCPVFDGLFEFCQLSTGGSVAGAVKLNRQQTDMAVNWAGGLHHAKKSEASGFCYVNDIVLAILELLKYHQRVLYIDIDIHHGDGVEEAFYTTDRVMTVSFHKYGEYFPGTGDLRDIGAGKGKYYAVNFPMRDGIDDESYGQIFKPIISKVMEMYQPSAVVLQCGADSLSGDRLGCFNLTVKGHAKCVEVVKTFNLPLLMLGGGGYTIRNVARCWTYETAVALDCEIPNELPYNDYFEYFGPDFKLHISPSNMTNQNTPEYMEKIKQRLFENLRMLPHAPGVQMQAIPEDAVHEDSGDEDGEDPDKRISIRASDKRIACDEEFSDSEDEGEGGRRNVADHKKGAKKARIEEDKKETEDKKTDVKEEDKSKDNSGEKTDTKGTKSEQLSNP

For `CC(=O)NCCCCC(NC(C)=O)C(=O)Nc1ccc2c(C)cc(=O)oc2c1` (stereo not shown) [Ac-Lys(Ac.)-AMC, Ac-Lys(ε-acetyl)-AMC, reference compound], the “Activity” value stood at 554 pmol/min/µg at HDAC2; 0.091 pmol/min/µg on HDAC8; 0.027 pmol/min/µg at HDAC9; 0.016 pmol/min/µg on SIRT2; 31 pmol/min/µg with HeLa Nuclear Extract. For the same compound, the “Activity (pmol/min/μg)” value on HDAC5, at HDAC7 and on SIRT4 was “Undetectable” in each case.
Consider `CC(=O)N[C@@H](CCCCNC(=O)CCC(=O)O)C(=O)Nc1ccc2c(C)cc(=O)oc2c1` [Compound 1, N—(N^α-acetyl-L-Lysine(N^ε-succinyl))-AMC], for which the “Activity” value was found to be 0.28 pmol/min/µg at HDAC2 and 0.012 pmol/min/µg in the assay on HeLa Nuclear Extract. Besides, the “Activity (pmol/min/μg)” value at HDAC5, at HDAC7, on HDAC8, at HDAC9, on SIRT2 and at SIRT4 was “Undetectable” in each case.
As to `CCCCCCCCCCCCCC(=O)NCCCC[C@H](NC(C)=O)C(=O)Nc1ccc2c(C)cc(=O)oc2c1` [Compound 4, N—(N^α-acetyl-L-Lysine(N^ε-myristoyl))-AMC], the “Activity” value at HDAC2 is 83.05 pmol/min/µg; in the assay on HeLa Nuclear Extract, 0.819 pmol/min/µg. Moreover, the “Activity (pmol/min/μg)” value at HDAC5, on HDAC7, at HDAC8 and at HDAC9 was “Undetectable” in each case.
`COC(=O)CCC(=O)NCCCC[C@H](NC(C)=O)C(=O)Nc1ccc2c(C)cc(=O)oc2c1` [Compound 5, N—(N^α-acetyl-L-Lysine(N^ε-methyl succinyl))-AMC]: the “Activity” value is 31.330 pmol/min/µg on HDAC2, 0.003 pmol/min/µg on HDAC8, 0.135 pmol/min/µg at HDAC9 and 1.764 pmol/min/µg in the assay on HeLa Nuclear Extract. For the same compound, the “Activity (pmol/min/μg)” value at HDAC5 and at HDAC7 was “Undetectable” in each case.
